Literature values, collected in patent US20200199640A1, “PROCESS FOR OBTAINING […] A HOST CELL COMPRISING POLYNUCLEOTIDES ENCODING FOR PO[…] IN THE OMPHALOTIN BIOSYNTHESIS” (TECHNISCHE UNIVERSITÄT BERLIN, priority 2017, published 2020).
Non-standard residues stand in square brackets, D forms with d. Residues, ends and D or L forms follow the SMILES beside them. ξ: configuration not given here. NMeIle(3ξ) = CCC(C)[C@H](NC)C(=O)O; Ile(3ξ) = CCC(C)[C@H](N)C(=O)O; NMeV = CN[C@H](C(=O)O)C(C)C; Sar = CNCC(=O)O

Tests used:
Meloidogyne incognita = conditions: literature statement (A. Mayer et al, Pestic. Sci. 1999, 55, 27-30)
[1] = literature statement (A. Mayer et al, Pestic. Sci. 1999, 55, 27-30)
[2] = literature statement (A. Mayer et al, Pestic. Sci. 1999, 55, 27-30); remark: listed apart in the source
[3] = literature statement (A. Mayer et al, Pestic. Sci. 1999, 55, 27-30); remark: listed apart in the source

## CCC(C)[C@@H]1NC(=O)[C@H](C(C)C)N(C)C(=O)[C@H](Cc2c[nH]c3ccccc23)NC(=O)CN(C)C(=O)[C@H](C(C)CC)N(C)C(=O)[C@H](C(C)C)NC(=O)CN(C)C(=O)[C@H](C(C)CC)N(C)C(=O)[C@H](C(C)C)N(C)C(=O)CN(C)C(=O)[C@H](C(C)C)N(C)C(=O)[C@H](C(C)C)N(C)C1=O (stereo partly shown) [Omphalotin A] (cyclo([Ile(3ξ)][NMeV][NMeV][Sar][NMeV][NMeIle(3ξ)][Sar]V[NMeIle(3ξ)][Sar]W[NMeV]))
Meloidogyne incognita
  activity against the plant pathogen nematode Meloidogyne incognita: strong and selective activity
[1]
  phytotoxic activity: no further phytotoxic, antibacterial or antifungal activities
[2]
  antibacterial activity: no further phytotoxic, antibacterial or antifungal activities
[3]
  antifungal activity: no further phytotoxic, antibacterial or antifungal activities
